ChEMBL document CHEMBL1201862, “PubChem BioAssay data set” (2004)
Calls of active or inactive are those of the source.

Tests used:
[1] = inhibitors of Vif binding to APOBEC3G peptide, primary screen, biochemical, TR-FRET, GST-Vif 1-94, biotin-A3G peptide, dose response retest (AID 1117319); assay type: functional;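 note: TR-FRET signal of purified GST-Vif binding a biotinylated A3G peptide; inhibitors lower the FRET signal by blocking Vif and A3G binding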
SUMO-activating enzyme [2] = biological target: T1, SUMO-activating enzyme (Homo sapiens, UniProt Q9UBT2); assay: SUMOylation inhibitor hit validation, confirmation, SUMOylation inhibitor project, biochemical, AlphaScreen (AID 2018); assay type: functional
SUMO-activating enzyme [3] = biological target: T1, SUMO-activating enzyme; assay: inhibitors of in vitro SUMOylation cascade, primary screen, biochemical, HTRF, uHTS (AID 2006); assay type: protein-complex assay
[4] = biological target: T2, Apoptotic protease-activating factor 1 (Homo sapiens, UniProt O14727); assay type: functional
T2 sequence (O14727 whole entry): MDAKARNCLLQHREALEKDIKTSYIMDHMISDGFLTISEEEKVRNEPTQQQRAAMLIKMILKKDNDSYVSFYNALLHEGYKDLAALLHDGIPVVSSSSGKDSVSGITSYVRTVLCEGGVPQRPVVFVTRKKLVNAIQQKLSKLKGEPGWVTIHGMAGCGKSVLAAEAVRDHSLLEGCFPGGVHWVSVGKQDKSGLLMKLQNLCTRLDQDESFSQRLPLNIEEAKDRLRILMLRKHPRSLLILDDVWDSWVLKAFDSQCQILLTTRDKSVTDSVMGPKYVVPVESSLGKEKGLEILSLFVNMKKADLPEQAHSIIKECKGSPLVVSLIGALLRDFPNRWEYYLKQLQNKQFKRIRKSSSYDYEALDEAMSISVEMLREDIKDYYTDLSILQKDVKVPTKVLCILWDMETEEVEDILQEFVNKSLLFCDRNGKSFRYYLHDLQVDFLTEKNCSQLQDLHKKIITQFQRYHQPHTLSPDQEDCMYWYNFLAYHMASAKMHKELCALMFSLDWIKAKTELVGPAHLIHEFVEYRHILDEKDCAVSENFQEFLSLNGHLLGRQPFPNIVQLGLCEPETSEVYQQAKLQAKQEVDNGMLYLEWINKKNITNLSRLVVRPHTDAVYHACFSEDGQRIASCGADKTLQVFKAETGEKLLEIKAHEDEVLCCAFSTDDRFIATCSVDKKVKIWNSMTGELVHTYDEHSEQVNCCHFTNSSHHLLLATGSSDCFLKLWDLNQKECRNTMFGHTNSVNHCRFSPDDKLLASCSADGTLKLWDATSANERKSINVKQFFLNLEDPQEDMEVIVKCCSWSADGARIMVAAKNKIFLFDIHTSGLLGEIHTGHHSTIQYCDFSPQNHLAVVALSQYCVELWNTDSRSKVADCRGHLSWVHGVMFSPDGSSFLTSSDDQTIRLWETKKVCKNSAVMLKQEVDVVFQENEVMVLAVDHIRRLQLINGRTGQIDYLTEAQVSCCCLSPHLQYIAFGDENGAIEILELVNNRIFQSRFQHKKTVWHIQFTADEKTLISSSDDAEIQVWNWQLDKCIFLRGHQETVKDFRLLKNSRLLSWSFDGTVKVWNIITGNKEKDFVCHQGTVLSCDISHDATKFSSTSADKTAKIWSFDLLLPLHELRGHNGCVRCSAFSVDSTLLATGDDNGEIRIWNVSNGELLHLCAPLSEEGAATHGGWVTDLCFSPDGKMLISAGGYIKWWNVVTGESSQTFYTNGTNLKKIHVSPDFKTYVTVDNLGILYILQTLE

[5] = biological target: T3, Sentrin-specific protease 8 (Homo sapiens, UniProt Q96LD8); assay type: functional
T3 sequence (Q96LD8 whole entry): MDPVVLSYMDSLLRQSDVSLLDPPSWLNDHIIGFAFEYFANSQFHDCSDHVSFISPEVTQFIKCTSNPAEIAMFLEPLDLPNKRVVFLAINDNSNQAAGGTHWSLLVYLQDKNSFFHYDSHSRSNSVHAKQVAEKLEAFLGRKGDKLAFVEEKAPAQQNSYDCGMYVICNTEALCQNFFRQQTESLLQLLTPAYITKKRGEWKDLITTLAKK

[6] = biological target: T3, Sentrin-specific protease 8; assay type: functional; remark: listed apart in the source
Caspase-6 = biological target: T4, Caspase-6 (Homo sapiens, UniProt P55212); assay: human caspase-6 inhibitors, dose response, biochemical, VEID-R110 fluorescence, cherry-pick (AID 720632)
T4 sequence (P55212 whole entry): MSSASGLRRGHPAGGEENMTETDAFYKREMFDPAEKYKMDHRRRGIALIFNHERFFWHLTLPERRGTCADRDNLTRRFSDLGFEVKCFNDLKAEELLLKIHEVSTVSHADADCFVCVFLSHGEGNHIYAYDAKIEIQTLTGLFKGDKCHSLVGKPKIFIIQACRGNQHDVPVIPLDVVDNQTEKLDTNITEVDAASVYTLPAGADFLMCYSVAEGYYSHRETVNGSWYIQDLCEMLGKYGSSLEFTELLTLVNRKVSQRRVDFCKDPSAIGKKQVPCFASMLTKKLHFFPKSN

[7] = biological target: T5, Histone-lysine N-methyltransferase NSD2 (Homo sapiens, UniProt O96028); assay type: biochemical
T5 sequence (O96028 whole entry): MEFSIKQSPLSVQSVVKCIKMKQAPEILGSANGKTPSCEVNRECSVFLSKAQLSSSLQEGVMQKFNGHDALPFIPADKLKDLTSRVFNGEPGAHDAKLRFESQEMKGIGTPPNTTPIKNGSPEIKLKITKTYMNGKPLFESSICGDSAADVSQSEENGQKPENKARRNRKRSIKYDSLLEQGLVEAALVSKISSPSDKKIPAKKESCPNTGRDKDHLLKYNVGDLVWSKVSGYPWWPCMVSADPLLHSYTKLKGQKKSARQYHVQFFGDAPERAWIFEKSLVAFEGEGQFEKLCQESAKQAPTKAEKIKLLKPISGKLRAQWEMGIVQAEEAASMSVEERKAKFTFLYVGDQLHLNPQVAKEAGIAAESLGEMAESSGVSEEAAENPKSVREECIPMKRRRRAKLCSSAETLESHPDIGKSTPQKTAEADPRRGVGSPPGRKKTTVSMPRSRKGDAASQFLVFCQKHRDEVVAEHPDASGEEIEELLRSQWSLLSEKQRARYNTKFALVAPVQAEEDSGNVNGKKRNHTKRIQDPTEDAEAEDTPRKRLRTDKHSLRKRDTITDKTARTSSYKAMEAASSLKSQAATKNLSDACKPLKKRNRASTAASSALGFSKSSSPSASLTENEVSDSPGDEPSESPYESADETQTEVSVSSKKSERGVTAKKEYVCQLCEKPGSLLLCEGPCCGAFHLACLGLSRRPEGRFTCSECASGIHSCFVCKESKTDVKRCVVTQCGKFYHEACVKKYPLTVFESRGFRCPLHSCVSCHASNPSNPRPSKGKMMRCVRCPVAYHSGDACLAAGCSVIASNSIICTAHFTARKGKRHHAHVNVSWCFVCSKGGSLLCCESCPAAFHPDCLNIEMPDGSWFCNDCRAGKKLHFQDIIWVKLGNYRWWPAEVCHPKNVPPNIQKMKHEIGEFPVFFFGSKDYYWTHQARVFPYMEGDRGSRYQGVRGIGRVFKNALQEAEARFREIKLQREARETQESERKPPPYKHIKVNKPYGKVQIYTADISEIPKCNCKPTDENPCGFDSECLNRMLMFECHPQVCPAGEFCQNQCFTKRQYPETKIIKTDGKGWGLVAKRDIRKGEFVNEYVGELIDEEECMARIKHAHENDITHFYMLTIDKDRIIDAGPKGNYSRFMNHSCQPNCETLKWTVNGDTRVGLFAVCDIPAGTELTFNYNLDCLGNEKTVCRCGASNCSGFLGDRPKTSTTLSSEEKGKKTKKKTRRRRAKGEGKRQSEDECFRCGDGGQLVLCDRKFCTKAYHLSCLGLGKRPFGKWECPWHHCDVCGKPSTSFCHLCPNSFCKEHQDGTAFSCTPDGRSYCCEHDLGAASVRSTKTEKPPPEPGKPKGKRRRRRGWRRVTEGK

[8] = biological target: Tyrosyl-DNA phosphodiesterase 2 (Homo sapiens, UniProt O95551); assay: human TDP2 enzyme inhibitors, dose response, biochemical, epi absorbance, IC50 (AID 743297)
[9] = biological target: Glutathione-S-transferase (Schistosoma japonicum, UniProt Q26513); assay: biotin-GST/anti-GST TR-FRET signal inhibitors, dose response, artefact control for Vif-APOBEC3G degradation inhibitor project, biochemical (AID 1117362); assay type: functional
[10] = biological target: T6, RNA-binding protein pos-1 (Caenorhabditis elegans, UniProt G5EF15); assay: inhibitors of POS-1/mex-3 RNA binding, dose response, biochemical, fluorescence polarization (AID 1964);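 note: purified POS-1 fused to maltose binding protein made in E. coli; potency of compounds blocking POS-1 binding to fluorescent RNA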
T6 sequence (G5EF15 whole entry): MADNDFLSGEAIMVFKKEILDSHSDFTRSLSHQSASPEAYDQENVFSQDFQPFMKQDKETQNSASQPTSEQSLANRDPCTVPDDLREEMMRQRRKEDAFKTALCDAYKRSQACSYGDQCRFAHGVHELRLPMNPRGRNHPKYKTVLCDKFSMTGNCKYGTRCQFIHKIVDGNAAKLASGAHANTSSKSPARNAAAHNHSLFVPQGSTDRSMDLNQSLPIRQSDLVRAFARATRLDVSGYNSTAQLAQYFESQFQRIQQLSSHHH

[11] = biological target: T7, Zinc finger protein mex-5 (Caenorhabditis elegans, UniProt Q9XUB2); assay: MEX-5/TCR-2 RNA interaction inhibitors, dose response, biochemical, C. elegans, fluorescence polarization (AID 1960)
T7 sequence (Q9XUB2 whole entry): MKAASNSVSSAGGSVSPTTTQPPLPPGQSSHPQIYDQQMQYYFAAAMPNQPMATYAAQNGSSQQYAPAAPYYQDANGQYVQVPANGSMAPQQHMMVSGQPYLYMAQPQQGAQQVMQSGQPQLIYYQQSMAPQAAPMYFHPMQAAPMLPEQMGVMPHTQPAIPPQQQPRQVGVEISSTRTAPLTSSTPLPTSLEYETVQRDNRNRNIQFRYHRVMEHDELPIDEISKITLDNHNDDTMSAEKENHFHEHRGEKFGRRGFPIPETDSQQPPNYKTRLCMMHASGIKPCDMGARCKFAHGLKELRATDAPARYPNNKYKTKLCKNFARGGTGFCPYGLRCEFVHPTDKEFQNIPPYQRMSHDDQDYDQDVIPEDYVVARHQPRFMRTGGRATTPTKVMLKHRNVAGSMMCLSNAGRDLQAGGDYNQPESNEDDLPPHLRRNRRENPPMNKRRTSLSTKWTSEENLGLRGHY

[12] = biological target: T8, Mannose-6-phosphate isomerase (Homo sapiens, UniProt P34949); assay: inhibitors of human PMI, primary screen, biochemical, fluorescence intensity, coupled assay (AID 1209)
T8 sequence (P34949 whole entry): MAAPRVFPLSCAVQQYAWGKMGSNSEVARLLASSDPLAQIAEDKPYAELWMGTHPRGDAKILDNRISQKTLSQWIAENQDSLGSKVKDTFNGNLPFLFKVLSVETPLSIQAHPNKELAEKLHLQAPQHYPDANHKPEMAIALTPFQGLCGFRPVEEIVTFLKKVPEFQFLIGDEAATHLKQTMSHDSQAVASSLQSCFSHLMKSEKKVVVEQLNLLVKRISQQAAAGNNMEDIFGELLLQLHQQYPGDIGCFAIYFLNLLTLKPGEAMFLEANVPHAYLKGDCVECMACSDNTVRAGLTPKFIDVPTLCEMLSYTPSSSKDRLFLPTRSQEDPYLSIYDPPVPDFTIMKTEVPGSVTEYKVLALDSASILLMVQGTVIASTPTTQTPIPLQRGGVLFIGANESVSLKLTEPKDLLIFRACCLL

Protein Tat = Protein Tat (Human immunodeficiency virus type 1 group M subtype B (isolate HXB2)(HIV-1), UniProt P04608); assay type: functional;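 note: tat binding to TAR RNA read out by fluorescence polarization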
Protein Tat, sequence (P04608 whole entry): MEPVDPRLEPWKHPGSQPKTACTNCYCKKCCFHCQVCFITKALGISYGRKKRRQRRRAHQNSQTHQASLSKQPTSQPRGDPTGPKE

T1 sequence (Q9UBE0 whole entry): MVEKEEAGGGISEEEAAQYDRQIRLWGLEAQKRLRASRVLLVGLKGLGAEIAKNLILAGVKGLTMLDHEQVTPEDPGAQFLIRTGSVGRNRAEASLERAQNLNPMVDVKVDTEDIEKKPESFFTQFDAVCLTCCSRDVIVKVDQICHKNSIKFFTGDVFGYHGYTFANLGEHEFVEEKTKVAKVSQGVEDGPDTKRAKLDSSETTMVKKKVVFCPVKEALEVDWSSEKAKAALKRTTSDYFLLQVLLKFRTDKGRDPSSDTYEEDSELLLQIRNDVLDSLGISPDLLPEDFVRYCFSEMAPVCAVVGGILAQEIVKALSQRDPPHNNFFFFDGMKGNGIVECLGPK
T1 sequence (Q9UBT2 whole entry): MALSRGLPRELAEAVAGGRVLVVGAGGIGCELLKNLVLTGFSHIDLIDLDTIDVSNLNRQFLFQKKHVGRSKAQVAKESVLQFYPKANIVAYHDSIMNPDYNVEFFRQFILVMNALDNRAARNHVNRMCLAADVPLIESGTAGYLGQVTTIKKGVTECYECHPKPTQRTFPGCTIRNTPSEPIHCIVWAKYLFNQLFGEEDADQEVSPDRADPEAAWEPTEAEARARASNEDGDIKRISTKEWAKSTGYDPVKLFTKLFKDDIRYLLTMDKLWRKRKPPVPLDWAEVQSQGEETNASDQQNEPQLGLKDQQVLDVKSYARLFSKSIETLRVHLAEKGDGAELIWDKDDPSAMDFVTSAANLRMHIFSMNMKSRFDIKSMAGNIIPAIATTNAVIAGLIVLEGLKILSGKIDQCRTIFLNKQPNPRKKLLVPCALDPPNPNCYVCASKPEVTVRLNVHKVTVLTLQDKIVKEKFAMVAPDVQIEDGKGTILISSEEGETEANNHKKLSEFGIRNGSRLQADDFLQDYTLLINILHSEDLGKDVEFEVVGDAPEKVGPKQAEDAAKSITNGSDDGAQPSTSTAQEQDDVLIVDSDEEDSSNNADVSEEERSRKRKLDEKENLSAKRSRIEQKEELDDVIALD
Glutathione-S-transferase, sequence (Q26513 whole entry, the tested form may be a part): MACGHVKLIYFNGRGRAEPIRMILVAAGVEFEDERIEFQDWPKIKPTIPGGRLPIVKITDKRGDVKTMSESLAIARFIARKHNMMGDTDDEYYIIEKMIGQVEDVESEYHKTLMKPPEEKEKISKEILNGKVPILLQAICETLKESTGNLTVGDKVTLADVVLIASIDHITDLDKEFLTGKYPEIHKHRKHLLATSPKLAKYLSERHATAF
Tyrosyl-DNA phosphodiesterase 2, sequence (O95551 whole entry): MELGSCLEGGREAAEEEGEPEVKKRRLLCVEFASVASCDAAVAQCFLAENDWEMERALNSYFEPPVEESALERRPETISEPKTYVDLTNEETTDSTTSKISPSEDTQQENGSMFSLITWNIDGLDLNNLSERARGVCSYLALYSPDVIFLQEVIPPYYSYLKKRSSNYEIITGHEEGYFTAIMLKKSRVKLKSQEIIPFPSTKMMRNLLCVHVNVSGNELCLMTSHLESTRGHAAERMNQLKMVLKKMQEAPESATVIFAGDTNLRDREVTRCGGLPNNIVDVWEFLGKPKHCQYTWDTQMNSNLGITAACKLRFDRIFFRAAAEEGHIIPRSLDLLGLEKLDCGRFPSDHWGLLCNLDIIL

O=C(NCCCN1CCOCC1)C1CC(=O)N(CCc2ccccc2)C1 (stereo not given)
active: IC50 [1] > 100 µM

CN(C)c1cc(Cl)c2nonc2c1N
active: IC50 (SUMO-activating enzyme [2]) 2.7 µM | IC50 (SUMO-activating enzyme [3]) 16.2 µM | IC50 [4] 16.8 µM | IC50 [5] 8.12 µM | IC50 [6] 6.83 µM | AC50 (Caspase-6) 12.6 µM | AC50 [7] 4.43 µM | IC50 [8] 9.9 µM | IC50 [9] > 100 µM

Cc1cc(O)c(Oc2cc(C)cc(O)c2O)c(O)c1
active: EC50 [10] 43.9 µM | EC50 [11] 12.9 µM | IC50 [12] 39.5 µM | IC50 (Protein Tat) > 100 µM

O=C(O)c1[nH]c2ccc(Cl)cc2c1CC(=O)N1CCN(C(=O)c2ccco2)CC1
active: IC50 [1] > 100 µM
